# Assay: in vitro Li delivery through pig skin in a flow-through Li-AgCl cell (protected Li metal foil donor electrode)
# Format: in vitro ADME
# Description: The glass receptor compartment was similar to one described by Phipps et al. (1988) Solid State Ionics 28-30: 1778-1783, for ionophoretic drug delivery experiments. The receptor compartment was filled with RPMI-1640 Medium (Sigma Aldrich). The antibiotic gentamicin sulphate was added to the receptor compartment fluid to inhibit bacterial growth.
# The prepared skin was stored in RPMI-1640 medium overnight before the start of the experiment. The skin was placed on the receptor chamber and kept in place and stretched out with an O-ring around the neck of the chamber. The visceral surface of the skin was in contact with the receptor fluid.
# A square 1 cm×1 cm silver chloride cathode with a capacity of approximately 40 mAh was introduced into the receptor chamber through a port. A multi-channel peristaltic pump was used to create a flow of the RPMI-1640 medium through receptor compartments of several cells. In our experiments we used a flow rate of 2.1 mL/hr. Periodic sampling of the receptor compartment fluid was performed automatically. The temperature inside the water-jacketed receptor compartment was kept at 37° C. The fluid inside the receptor compartment was stirred with a magnetic stir bar.
# The donor chamber was positioned over the skin. It contained Li metal foil and a protective architecture enabling the use of Li in an aqueous environment. The protective architecture comprised a 150 micron thick barrier layer composed of a glass ceramic solid electrolyte plate (AG-01 material from OHARA Corporation with ionic conductivity of ˜10^−4 S/cm) and an anolyte interlayer located between the Li surface and the glass ceramic plate barrier layer. […]
# The donor-acceptor chamber assembly was kept in place using a clamp. […] Li content in the fluid samples taken from receptor compartment was analyzed by ICP-MS.
# The rate of Li delivery into the receptor compartment was calculated as a product of Li concentration and the flow rate of the receptor fluid.
structure (smiles),measurement,setting,value
"[Li] [Li, lithium]","Li content in receptor fluid samples, comparison of current densities","0.2 mA/cm^2 vs 0.1 mA/cm^2, FIG. 9",significantly larger for the rate of 0.2 mA/cm^2 than for 0.1 mA/cm^2
same,initial Li content of the receptor solution,before current passing,≤ 6 µg/L
same,Li content in receptor fluid samples over time,"constant current 0.1 mA/cm^2 (27 hrs) and 0.2 mA/cm^2 (24 hrs), 37° C., RPMI-1640 receptor fluid, ICP-MS, FIG. 9",gradually increased over time
